This assay has as its target T1, human parathyroid cell Ca2+ receptor (hPCaR) (Homo sapiens, UniProt P41180).
T1 construct: expressed in transfected cells
T1 sequence (P41180 20-1078): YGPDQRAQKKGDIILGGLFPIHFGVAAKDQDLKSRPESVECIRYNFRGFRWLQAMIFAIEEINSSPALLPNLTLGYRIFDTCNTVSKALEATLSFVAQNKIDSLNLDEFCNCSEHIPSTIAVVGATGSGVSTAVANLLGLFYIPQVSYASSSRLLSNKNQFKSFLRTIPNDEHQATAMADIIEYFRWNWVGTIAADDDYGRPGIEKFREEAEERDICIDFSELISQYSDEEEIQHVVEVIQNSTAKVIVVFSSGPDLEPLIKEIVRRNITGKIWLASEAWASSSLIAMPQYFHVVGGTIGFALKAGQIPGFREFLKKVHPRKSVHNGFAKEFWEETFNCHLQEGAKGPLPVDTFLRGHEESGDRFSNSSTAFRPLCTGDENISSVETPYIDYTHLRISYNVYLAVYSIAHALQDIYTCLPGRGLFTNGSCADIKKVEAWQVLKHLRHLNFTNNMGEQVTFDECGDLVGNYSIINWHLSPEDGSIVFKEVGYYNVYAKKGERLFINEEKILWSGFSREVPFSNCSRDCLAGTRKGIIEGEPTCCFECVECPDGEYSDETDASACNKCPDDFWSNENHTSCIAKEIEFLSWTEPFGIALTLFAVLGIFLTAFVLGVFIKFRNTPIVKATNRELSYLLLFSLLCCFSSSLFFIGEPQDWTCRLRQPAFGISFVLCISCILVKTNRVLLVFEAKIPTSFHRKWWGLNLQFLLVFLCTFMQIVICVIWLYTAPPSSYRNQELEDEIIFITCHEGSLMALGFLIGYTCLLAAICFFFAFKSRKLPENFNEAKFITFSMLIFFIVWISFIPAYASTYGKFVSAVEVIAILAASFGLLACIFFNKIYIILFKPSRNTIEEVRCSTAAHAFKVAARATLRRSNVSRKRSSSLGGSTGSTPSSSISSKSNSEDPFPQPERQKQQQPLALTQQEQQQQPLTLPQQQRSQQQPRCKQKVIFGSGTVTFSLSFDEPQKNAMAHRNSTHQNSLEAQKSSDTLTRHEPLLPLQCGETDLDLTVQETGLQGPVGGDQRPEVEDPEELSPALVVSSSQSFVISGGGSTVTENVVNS
Nature of the assay: [Ca2+]i fluorescence assay in HEK 293 4.0-7 cells expressing hPCaR. Format: cell-based. The conditions noted are these: buffer with 1 mM CaCl2. The procedure:
The activities of the compounds of the present invention on calcium receptors were measured. In one embodiment, the measurement was performed in accordance with the method described in Example 4 of Nemeth et al., PCT/US95/13704 (International Publication No. WO96/12697) herein incorporated by reference.
A 4.0-kb NotI-HindIII fragment of the human parathyroid cell Ca^2+ receptor (hPCaR) cDNA was subcloned into the mammalian expression vector pCEP4 (Invitrogen) containing the hygromycin-resistant gene as a selectable marker. This plasmid was transfected into HEK 293 cells by calcium phosphate precipitation. Transfected cells were grown in Dulbecco's modified Eagle's medium containing 10% fetal bovine serum and hygromycin (200 μg/mL). Hygromycin-resistant colonies were subcloned and assayed for hPCaR mRNA by solution hybridization using a ^32P-labeled RNA probe complementary to the (4.0 kb) hPCaR sequence (Garrett, et al., J. Biol. Chem. 270, 12919-12925 (1995)). Clone 7 was used to assess the effects of compounds on [Ca^2+]i. This stably transfected cell line was termed HEK 293 4.0-7. For measurements of [Ca^2+]i, the cells were recovered from tissue culture flasks by brief treatment with Versene (Invitrogen; Containing 0.2 g/L EDTA.4Na in phosphate-buffered saline) and then seeded in collagen coated 384-well plates (BD Biosciences) at 20K cells per well in the growth media (same as above). Cells were grown in 37c TC incubator overnight. Then, the media was discarded and cells were loaded with 1× dye from Ca^2+ Assay Kit I (BD Biosciences) in parathyroid cell buffer (126 mM NaCl, 4 mM KCl, 1 mM MgSO4, 0.7 mM K2HPO4/KH2PO4, 20 mM HEPES.NaOH (pH 7.45)) containing 0.5% BSA and 1 mM CaCl2. Cells were loaded at room temperature for 90 minutes. Each test compound was added to the cells and the fluorescence was recorded by using excitation and emission wavelengths of 485 and 530 nm, respectively.

Where only a bound is given, the exact number is not on record here.

The term EC50 denotes the concentration at which the effect is half-maximal. For the compound `CS(=O)(=O)NCCN(CCC(c1ccccc1)c1ccccc1)C(=O)Nc1nc(-c2ccc(NS(C)(=O)=O)cc2)c(Cl)s1` [Example 139, 3-(5-chloro-4-(4-(methylsulfonamido)phenyl)thiazol-2-yl)-1-(3,3-diphenylpropyl)-1-(2-(methylsulfonamido)ethyl)urea], the EC50 was less than 100 nM.
To `O=C(CCN(CCC(c1ccccc1)c1ccccc1)C(=O)Nc1nc(-c2ccccc2)cs1)N[C@@H]1CCCNC1` [Example 102, (R)-1-(3,3-diphenylpropyl)-1-(3-oxo-3-(piperidin-3-ylamino)propyl)-3-(4-phenylthiazol-2-yl)urea] belongs 100 to 1000 nM; to `CN(C)C(=O)N1CCN(C(=O)CCCN(CCC(c2ccccc2)c2ccccc2)C(=O)Nc2nc3ccccc3s2)CC1` [Example 87, 3-(benzo[d]thiazol-2-yl)-1-(4-(4-(dimethylcarbamoyl)piperazin-1-yl)-4-oxobutyl)-1-(3,3-diphenylpropyl)urea], less than 100 nM; to `CC(C)(C)OC(=O)N1CCN(C(=O)CCCN(CCC(c2ccccc2)c2ccccc2)C(=O)Nc2nc(-c3ccccc3)cs2)CC1` [Example 96, tert-butyl 4-(4-(1-(3,3-diphenylpropyl)-3-(4-phenylthiazol-2-yl)ureido)butanoyl)piperazine-1-carboxylate], 100 to 1000 nM.
`NC(=O)CCN(CCC(c1ccccc1)c1ccccc1)C(=O)Nc1nc(-c2ccccc2)c(Cl)s1` [Example 110, 1-(3-amino-3-oxopropyl)-3-(5-chloro-4-phenylthiazol-2-yl)-1-(3,3-diphenylpropyl)urea] yielded a concentration giving a half-maximal response (EC50) of 100 to 1000 nM.
To `O=C(CCCN(CCC(c1ccccc1)c1ccccc1)C(=O)Nc1nc2ccccc2s1)N[C@@H]1CCCNC1` [Example 71, (R)-3-(benzo[d]thiazol-2-yl)-1-(3,3-diphenylpropyl)-1-(4-oxo-4-(piperidin-3-ylamino)butyl)urea] belongs less than 100 nM; to `CS(=O)(=O)Nc1ccc(-c2nc(NC(=O)N(CCN[C@H]3CCCNC3)CCC(c3ccccc3)c3ccccc3)sc2Cl)cc1` [Example 141, (S)-3-(5-chloro-4-(4-(methylsulfonamido)phenyl)thiazol-2-yl)-1-(3,3-diphenylpropyl)-1-(2-(piperidin-3-ylamino)ethyl)urea], less than 100 nM; to `CS(=O)(=O)Nc1ccc(-c2nc(NC(=O)N(CCC(c3ccccc3)c3ccccc3)CCS(N)(=O)=O)sc2Cl)cc1` [Example 136, 2-[{[(5-chloro-4-{4-[(methylsulfonyl)amino]phenyl}-1,3-thiazol-2-yl)amino]carbonyl}(3,3-diphenylpropyl)amino]ethanesulfonamide], less than 100 nM.
Take `O=C(CCN(CCC(c1ccccc1)c1ccccc1)C(=O)Nc1nc(-c2ccccc2)cs1)N[C@H]1CCCNC1` [Example 93, (S)-1-(3,3-diphenylpropyl)-1-(3-oxo-3-(piperidin-3-ylamino)propyl)-3-(4-phenylthiazol-2-yl)urea]: the EC50 fell in the range of 100 to 1000 nM.
To `O=C1CC[C@@H](NCCN(CCC(c2ccccc2)c2ccccc2)C(=O)Nc2nc3ccccc3s2)CN1` [Example 144, (R)-3-(benzo[d]thiazol-2-yl)-1-(3,3-diphenylpropyl)-1-(2-(6-oxopiperidin-3-ylamino)ethyl)urea] belongs less than 100 nM.
In the case of `CS(=O)(=O)Nc1ccc(-c2nc(NC(=O)N(CCN[C@@H]3CCCNC3)CCC(c3ccccc3)c3ccccc3)sc2Cl)cc1` [Example 140, (R)-3-(5-chloro-4-(4-(methylsulfonamido)phenyl)thiazol-2-yl)-1-(3,3-diphenylpropyl)-1-(2-(piperidin-3-ylamino)ethyl)urea], the EC50 is less than 100 nM.
Regarding `O=C(Nc1nc2ccccc2s1)N(CCO)CCC(c1ccccc1)c1ccccc1` [Example 175, 3-Benzothiazol-2-yl-1-(3,3-diphenylpropyl)-1-(2-hydroxy-ethyl)-urea], the EC50 was in the range of 100 to 1000 nM.
Consider `CS(=O)(=O)Nc1ccc(-c2nc(NC(=O)N(CCNC(=O)C3CCCNC3)CCC(c3ccccc3)c3ccccc3)sc2Cl)cc1` (centres unmarked) [Example 131, 3-(5-chloro-4-(4-(methylsulfonamido)phenyl)thiazol-2-yl)-1-(3,3-diphenylpropyl)-1-(2-(piperidine-3-carboxamido)ethyl)urea], for which the EC50 is less than 100 nM.
To `O=C(CCN(CCC(c1ccccc1)c1ccccc1)C(=O)Nc1nc2ccccc2s1)NC1CCCCC1` [Example 112, 3-(benzo[d]thiazol-2-yl)-1-(3-(cyclohexylamino)-3-oxopropyl)-1-(3,3-diphenylpropyl)urea] belongs 100 to 1000 nM; to `CC(C)(C)OC(=O)N1CCC(C(=O)NCCN(CCC(c2ccccc2)c2ccccc2)C(=O)Nc2nc3ccccc3s2)CC1` [Example 165, 4-{2-[3-Benzothiazol-2-yl-1-(3,3-diphenyl-propyl)-ureido]-ethylcarbamoyl}-piperidine-1-carboxylic acid tert-butyl ester], 100 to 1000 nM.
In turn, `O=C(CCCN(CCC(c1ccccc1)c1ccccc1)C(=O)Nc1nc(-c2ccccc2)cs1)N[C@@H]1CCCNC1` [Example 76, (R)-1-(3,3-diphenylpropyl)-1-(4-oxo-4-(piperidin-3-ylamino)butyl)-3-(4-phenylthiazol-2-yl)urea] gave an EC50 of less than 100 nM.
Regarding `O=C(NCCN(CCC(c1ccccc1)c1ccccc1)C(=O)Nc1nc2ccccc2s1)C1CCNCC1` [Example 166, Piperidine-4-carboxylic acid {2-[3-benzothiazol-2-yl-1-(3,3-diphenyl-propyl)-ureido]-ethyl}-amide], the EC50 was less than 100 nM.
Next, `O=C(O)CN1CCC(NCCN(CCC(c2ccccc2)c2ccccc2)C(=O)Nc2nc3ccccc3s2)CC1` [Example 162, (4-{2-[3-Benzothiazol-2-yl-1-(3,3-diphenyl-propyl)-ureido]-ethylamino}-piperidin-1-yl)acetic acid]: less than 100 nM; `CCCS(=O)(=O)NCCN(CCC(c1ccccc1)c1ccccc1)C(=O)Nc1nc2ccccc2s1` [Example 168, Propane-1-sulfonic acid {2-[3-benzothiazol-2-yl-1-(3,3-diphenyl-propyl)-ureido]-ethyl}-amide]: 1000 to 5000 nM.
To `NS(=O)(=O)c1ccc(-c2csc(NC(=O)N(CCCC(=O)O)CCC(c3ccccc3)c3ccccc3)n2)cc1` [Example 124] belongs less than 100 nM; to `CS(=O)(=O)c1ccc(-c2nc(NC(=O)N(CCCC(=O)O)CCC(c3ccccc3)c3ccccc3)sc2Cl)cc1` [Example 72, 4-(3-(5-chloro-4-(4-(methylsulfonyl)phenyl)thiazol-2-yl)-1-(3,3-diphenylpropyl)ureido)butanoic acid], less than 100 nM.
Next, `O=C(O)CCN(CCC(c1ccccc1)c1ccccc1)C(=O)Nc1nc(-c2ccccc2)c(Cl)s1` [Example 121, 3-(3-(5-chloro-4-phenylthiazol-2-yl)-1-(3,3-diphenylpropyl)ureido)propanoic acid]: 1000 to 5000 nM; `CC(C)(C)OC(=O)CN1CCC(NCCN(CCC(c2ccccc2)c2ccccc2)C(=O)Nc2nc3ccccc3s2)CC1` [Example 158, (4-{2-[3-Benzothiazol-2-yl-1-(3,3-diphenyl-propyl)-ureido]-ethylamino}-piperidin-1-yl)acetic acid tert-butyl ester]: 100 to 1000 nM.

Values taken from US20080125424A1, “Derivatives of urea and related diamines, methods for their manufacture, and uses therefor” (priority 2006, published 2008).
